Read-outs that look alike come from different tables or passages of the source.
Columns and labels:
[1] = Caco-2 permeation assay, bidirectional permeability; assay type: in vitro ADME; settings: human, Caco-2, pH 7.4, 5 μM, Papp(B-A)/Papp(A-B)
Description: 1. Caco-2 Permeation Assay: Evaluation of the Bidirectional Permeabilities of Compounds.
Samples were analyzed through LC/MS/MS for estimating the apparent permeability coefficients (Papp) of compounds across Caco-2 cell monolayers. Caco-2 cells (American Type Culture Collection) were incubated and seeded onto HTS Transwell-96 Well Permeable Supports (Corning Corporation) for 14 days using a cell medium consisting of Dulbecco's Modified Eagle's Medium (DMEM) with high glucose and L-glutamine supplemented with 10% FBS, 1× penicillin-streptomycin mixture and 1×non-essential amino acids (NEAA). Cell monolayer integrity was measured using an automated tissue resistance measuring system (World Precision Instruments). Stock solutions of compounds and control compounds in DMSO were diluted with HBSS (10 mM HEPES, pH 7.4) to reach a final concentration of 5 μM with a final concentration of DMSO <0.1%. HBSS was then removed after 30 minutes of preincubation, and 75 μL of test compound was added to the apical compartment of the Transwell insert. The basolateral compartment was filled with 235 μL of HBSS (10 mM HEPES, pH 7.4) containing 2% BSA. Rate of drug transport in the basolateral to apical direction was obtained by adding 235 μL of test compound to the receiver plate wells (basolateral compartment) and filling with 75 μL of HBSS (10 mM HEPES, pH 7.4) containing 2% BSA. Time 0 samples were prepared by transferring 25 μL of 5 μM working solution to wells of the 96-deepwell plate containing 25 μL HBSS (10 mM HEPES and 2% BSA, pH 7.4), followed by the addition 200 μL of cold methanol containing appropriate internal standards (100 nM alprazolam, 200 nM labetalol, 200 nM caffeine and 200 nM diclofenac). After incubating at 37° C. for 2 h, 25 μL samples from donor sides (apical compartment) were transferred to a 96-well plate containing 25 μL HBSS (10 mM HEPES and 2% BSA, pH 7.4). 25 μL samples from receiver sides (basolateral compartment) were removed and transferred to a new plate containing 25 μL HBSS (10 mM HEPES, pH 7.4). 200 μL of cold methanol containing internal standards (100 nM alprazolam, 200 nM labetalol, 200 nM caffeine and 200 nM diclofenac) was added to terminate the reaction. Samples were vortexed for 5 minutes and then centrifuged at 3,220 g for 40 minutes. An aliquot of 100 μL of the supernatant is mixed with 100 μL of ultra-pure water for LC-MS/MS analysis. All incubations are performed in duplicate. Solutions were discarded from the transwell plate. 100 μL Lucifer Yellow solution (100 μM in HBSS) was added to each well of transwell insert and 300 μL of HBSS to each well of receiver. After incubating at 37° C. for 30 minutes, 80 μL was aliquotted from each well of apical and basolateral sides to a solid black plate. The plate was then read with Tecan Infinite™ M 200 (Excitation/Emission wavelength […]).
All calculations were carried out using Microsoft Excel. Peak areas were determined from extracted ion chromatograms. The leakage of Lucifer Yellow, in unit of percentage (%), can be calculated using the following equation: […]
LY leakage of <1% is acceptable to indicate the well-qualified Caco-2 monolayers. The apparent permeability coefficient (Papp), in units of centimeter per second, can be calculated for Caco-2 drug transport assays using the following equation: […]
Where VA is the volume (in mL) in the receiver well (0.235 mL for Ap→Bl flux and 0.075 mL for Bl→Ap flux), Area is the surface area of the membrane (0.143 cm^2 for HTS Transwell-96 Well Permeable Supports), and time is the total transport time in seconds. The efflux ratio can be determined using the following equation: […]
Where Papp (B-A) indicates the apparent permeability coefficient in basolateral to apical direction, and Papp (A-B) indicates the apparent permeability coefficient in apical to basolateral direction.
The recovery can be determined using the following equation: […]

OVCAR-3 cells = assay: In vitro anti-proliferative activity assay in cancer cell line OVCAR-3 (CellTiter-Glo, 4- or 7-day); assay type: cell-based; settings: Homo sapiens, read-out: OVCAR-3 cellular antiproliferation assay IC50
KIF18A = KIF18A (Homo sapiens (Human), UniProt Q8NI77); assay: KIF18A Biochemical Assay (ATPase, ADP-Glo)
[2] = In vivo pharmacokinetic evaluation in mouse; design: species or system female balb/c nude mice

Chain of KIF18A (Q8NI77 1-367): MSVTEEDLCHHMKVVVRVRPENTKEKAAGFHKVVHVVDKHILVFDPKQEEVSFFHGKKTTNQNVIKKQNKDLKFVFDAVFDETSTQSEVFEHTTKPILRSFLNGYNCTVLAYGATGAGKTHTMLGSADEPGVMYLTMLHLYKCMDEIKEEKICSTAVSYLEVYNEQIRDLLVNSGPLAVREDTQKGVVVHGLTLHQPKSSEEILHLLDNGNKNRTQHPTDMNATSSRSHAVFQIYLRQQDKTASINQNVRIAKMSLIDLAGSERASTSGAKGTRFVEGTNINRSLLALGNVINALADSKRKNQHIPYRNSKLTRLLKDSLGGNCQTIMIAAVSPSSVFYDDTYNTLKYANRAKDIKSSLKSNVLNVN
Chain of KIF18A (P02550 whole entry partner): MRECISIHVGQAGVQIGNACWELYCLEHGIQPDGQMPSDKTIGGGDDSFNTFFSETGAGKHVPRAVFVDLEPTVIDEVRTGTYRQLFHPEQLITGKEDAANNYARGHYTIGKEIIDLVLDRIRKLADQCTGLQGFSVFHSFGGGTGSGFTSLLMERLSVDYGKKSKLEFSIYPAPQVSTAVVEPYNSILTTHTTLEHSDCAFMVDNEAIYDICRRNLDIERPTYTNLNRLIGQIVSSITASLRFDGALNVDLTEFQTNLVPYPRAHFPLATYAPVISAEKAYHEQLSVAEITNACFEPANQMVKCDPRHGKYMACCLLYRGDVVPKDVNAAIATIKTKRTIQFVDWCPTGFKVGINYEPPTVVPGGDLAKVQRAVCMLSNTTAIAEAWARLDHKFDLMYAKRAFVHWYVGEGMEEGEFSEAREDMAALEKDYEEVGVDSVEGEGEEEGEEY
Chain of KIF18A (P02554 whole entry partner): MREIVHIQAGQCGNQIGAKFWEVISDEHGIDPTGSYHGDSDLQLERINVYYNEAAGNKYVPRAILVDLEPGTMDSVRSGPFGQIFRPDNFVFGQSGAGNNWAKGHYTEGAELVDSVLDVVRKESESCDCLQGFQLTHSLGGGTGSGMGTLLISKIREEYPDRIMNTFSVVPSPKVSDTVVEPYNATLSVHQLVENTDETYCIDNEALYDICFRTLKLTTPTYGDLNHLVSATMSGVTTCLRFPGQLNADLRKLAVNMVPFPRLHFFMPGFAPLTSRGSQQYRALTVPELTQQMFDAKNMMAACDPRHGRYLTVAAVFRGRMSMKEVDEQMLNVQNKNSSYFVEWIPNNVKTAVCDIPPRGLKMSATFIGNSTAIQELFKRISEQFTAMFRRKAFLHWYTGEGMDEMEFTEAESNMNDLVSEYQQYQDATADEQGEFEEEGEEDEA

| IV Clearance ([2]; 3 mg/kg IV) | Vd ([2]; female, balb/c nude, plasma, 3 mg/kg IV, read-out: IV Vss) | Cmax ([2]; female, balb/c nude, plasma, 10 mg/kg PO) | half-life ([2]; female, balb/c nude, plasma, 10 mg/kg PO, read-out: PO T1/2 (converted)) | Compound | efflux ratio at 2 h, 5 μM [1] | IC50 (OVCAR-3 cells; OVCAR-3, 96 h, 4-day assay) | IC50 (KIF18A) | IC50 (OVCAR-3 cells; OVCAR-3, 168 h, 7-day assay) |
| --- | --- | --- | --- | --- | --- | --- | --- | --- |
|  |  |  |  | Cc1cc(NC(=O)c2ccc(NS(=O)(=O)CCO)cc2N2CCC3(C)CC3C2)nc(N2CCC(F)(F)CC2)n1 (stereo not shown) [Example 37] | < 10 | < 100 nM | < 100 nM |  |
|  |  |  |  | Cc1cc(NC(=O)c2ccc(NS(=O)(=O)NCCO)cc2N2CC[Si](C)(C)CC2)nc(N2CCC(F)(F)CC2)n1 [Example 117] | < 10 |  | 100 to 500 nM | 100 to 500 nM |
|  |  |  |  | Cc1ccc(NC(=O)c2ccc(NS(=O)(=O)CCO)cc2N2CC[Si](C)(C)CC2)nc1N1CCOCC1 [Example 2, 2-(4,4-dimethyl-1,4-azasilinan-1-yl)-4-((2-hydroxyethyl)sulfonamido)-N-(5-methyl-6-morpholinopyridin-2-yl)benzamide] | < 10 | < 100 nM | < 100 nM |  |
|  |  |  |  | C[Si]1(C)CCN(c2cc(NS(=O)(=O)CCO)ccc2C(=O)Nc2cncc(N3CCC(F)(F)CC3)n2)CC1 [Example 108] | < 10 |  | < 100 nM | < 100 nM |
|  |  |  |  | O=C(Nc1ccnc(C2CCC(F)(F)CC2)n1)c1ccc(NS(=O)(=O)CCO)cc1N1CC[C@]2(C(F)F)C[C@@H]2C1 [Example 75] | < 10 |  | < 100 nM | < 100 nM |
|  |  |  |  | Cc1cc(NC(=O)c2ccc(NS(=O)(=O)CCO)cc2N2CCC3(C)C(C2)C3(F)F)nc(N2CCC(F)(F)CC2)n1 (stereo not shown) [Example 28, 2-(7,7-difluoro-6-methyl-3-azabicyclo[4.1.0]heptan-3-yl)-N-(2-(4,4-difluoropiperidin-1-yl)-6-methylpyrimidin-4-yl)-4-((2-hydroxyethyl)sulfonamido)benzamide] | < 10 | 100 to 500 nM | < 100 nM |  |
|  |  |  |  | Cc1cc(NC(=O)c2ccc(NS(=O)(=O)[C@H](C)CO)cc2N2CC[Si](C)(C)CC2)nc(N2CCC(F)(F)CC2)n1 [Example 111] | ≥ 10 |  | < 100 nM | < 100 nM |
| 0.74 mL/ming/kg | 0.51 L/kg | 10100 ng/mL | 10.6 h | Cc1cc(NC(=O)c2ccc(NS(=O)(=O)CCO)cc2N2CC[C@@]3(F)CC[C@H]3C2)nc(N2CCC(F)(F)CC2)n1 (single isomer, unassigned) [Example 50b] | < 10 |  | < 100 nM | 100 to 500 nM |
|  |  |  |  | Cc1cc(NC(=O)c2ccc(NS(=O)(=O)N(C)CCO)cc2N2CC[Si](C)(C)CC2)nc(N2CCC(F)(F)CC2)n1 [Example 134] | < 10 |  | < 100 nM | 100 to 500 nM |
|  |  |  |  | CNS(=O)(=O)Nc1ccc(C(=O)Nc2cc(C)nc(C3CCC(F)(F)CC3)n2)c(N2CC[Si](C)(C)CC2)c1 [Example 118] | < 10 |  | < 100 nM | 100 to 500 nM |
|  |  |  |  | CC(=O)NCCS(=O)(=O)Nc1ccc(C(=O)Nc2cccc(N3CCC(F)(F)CC3)n2)c(N2CC[Si](C)(C)CC2)c1 [Example 104] | < 10 |  | < 100 nM | 100 to 500 nM |
|  |  |  |  | Cc1cc(NC(=O)c2c(F)cc(NS(=O)(=O)CCO)cc2N2CC[C@@]3(C(F)F)C[C@H]3C2)nc(N2CCC(F)(F)CC2)n1 [Example 72] | ≥ 10 |  | < 100 nM | 100 to 500 nM |
|  |  |  |  | Cc1cc(NC(=O)c2ccc(NS(=O)(=O)CCO)cc2N2CC[Si](C)(C)CC2)nc(N2CCC(F)(F)CC2)c1 [Example 8, N-(6-(4,4-difluoropiperidin-1-yl)-4-methylpyridin-2-yl)-2-(4,4-dimethyl-1,4-azasilinan-1-yl)-4-((2-hydroxyethyl)sulfonamido)benzamide] | < 10 | < 100 nM | 100 to 500 nM |  |
|  |  |  |  | O=C(Nc1ccnc(N2CCC(F)(F)CC2)n1)c1ccc(NS(=O)(=O)CCO)cc1N1CC[C@]2(C(F)F)C[C@@H]2C1 [Example 60] | ≥ 10 |  | < 100 nM | < 100 nM |
|  |  |  |  | C[Si]1(C)CCN(c2cc(NS(=O)(=O)CCO)ccc2C(=O)Nc2cccc(OCCC(F)(F)F)n2)CC1 [Example 16] | < 10 | < 100 nM | < 100 nM |  |
|  |  |  |  | O=C(Nc1ccnc(N2CCC(F)(F)CC2)n1)c1cc2cnn(CCO)c2cc1N1CCC2(CC1)CC2 [Example 12] | < 10 | > 1000 nM | 500 to 1000 nM |  |
|  |  |  |  | C[Si]1(C)CCN(c2cc(NS(=O)(=O)CCO)ccc2C(=O)Nc2ccnc(OCCC(F)(F)F)n2)CC1 [Example 10] | ≥ 10 | 500 to 1000 nM | < 100 nM |  |
|  |  |  |  | Cc1cc(NC(=O)c2ccc(NS(=O)(=O)CCO)cc2N2CC[Si](C)(C)CC2)nc(N2CCOC3(CC3)C2)n1 [Example 102] | ≥ 10 |  | < 100 nM | < 100 nM |
|  |  |  |  | O=C(Nc1cccc(N2CCC(F)(F)CC2)n1)c1c(F)cc(NS(=O)(=O)CCO)cc1N1CC[C@@]2(C(F)F)C[C@H]2C1 [Example 84] | < 10 |  | < 100 nM | 100 to 500 nM |
|  |  |  |  | C[Si]1(C)CCN(c2cc(NS(=O)(=O)CCO)ccc2NC(=O)c2ccnc(OCCC(F)(F)F)n2)CC1 [Example 88] | < 10 |  | 100 to 500 nM | 500 to 1000 nM |
|  |  |  |  | Cc1cc(NC(=O)c2ccc(NS(=O)(=O)CCO)cc2N2CC[Si](C)(C)CC2)nc(N2CCOCC2)c1 [Example 5, 2-(4,4-dimethyl-1,4-azasilinan-1-yl)-4-((2-hydroxyethyl)sulfonamido)-N-(4-methyl-6-morpholinopyridin-2-yl)benzamide] | < 10 | < 100 nM | < 100 nM |  |
|  |  |  |  | CC(C)(C)NS(=O)(=O)c1cccc(NC(=O)c2ccc(NS(=O)(=O)C(C)(C)C)cc2N2CC[Si](C)(C)CC2)c1 [Example 4, N-(3-(N-(tert-butyl)sulfamoyl)phenyl)-2-(4,4-dimethyl-1,4-azasilinan-1-yl)-4-((1,1-dimethylethyl)sulfonamido)benzamide] | < 10 | 100 to 500 nM | 500 to 1000 nM |  |
|  |  |  |  | Cc1cc(NC(=O)c2ccc(NS(=O)(=O)CCO)cc2N2CC[C@@]3(C(F)F)C[C@H]3C2)nc(N2CCC(F)(F)CC2)c1 [Example 48, 2-((1R,6S)-6-(difluoromethyl)-3-azabicyclo[4.1.0]heptan-3-yl)-N-(6-(4,4-difluoropiperidin-1-yl)-4-methylpyridin-2-yl)-4-((2-hydroxyethyl)sulfonamido)benzamide] | ≥ 10 | < 100 nM | < 100 nM |  |
|  |  |  |  | C[Si]1(C)CCN(c2cc(NS(=O)(=O)CCO)ccc2C(=O)Nc2cccc(OCC(O)C(F)(F)F)n2)CC1 (stereo not shown) [Example 119] | < 10 |  | < 100 nM | < 100 nM |

— patent publication US20250197428A1, “INHIBITORS OF KIF18A AND USES THEREOF” (ACCENT THERAPEUTICS, INC., priority 2022, published 2025)
